Reference: US6627441B1, “Increasing levels of growth regulator and/or water stress during embryo development” (priority 1998, dated 2003)

Experiments:
[1] = system: Norway spruce somatic embryos; assay: Norway spruce culture with raised ABA and PEG (Example 5); format: cell-based
Method: Norway spruce was cultured using the same protocol as developed for white spruce. Thus, somatic embryos from full hormone suspension culture were transferred to hormone-free liquid culture medium (half-strength Litvay's medium, 3% sucrose) for one week, then transferred (0.75 mL of 20% suspension) to maturation medium in petri dishes.
The first medium contained PEG adjusted to 290 mmol/kg and 20 μM ABA. After two weeks, the cultures were transferred on their filter paper supports to fresh medium of the same composition, or to medium containing PEG adjusted to 400 mmol/kg and 30 μM ABA. After a further two weeks (i e., the fourth week of culture), the somatic embryos were transferred either to PEG media at a water potential of 400 mmol/kg and 40 μM ABA, or to PEG medium of 540 mmol/kg and 40 μM ABA. Somatic embryos were also plated on medium containing 20 μM ABA and no PEG.

[2] = system: white spruce somatic embryos; assay: Varying ABA and PEG during development, precocious germination observations (Example 2); format: cell-based; conditions: 6 weeks
Method: In order to test the above hypothesis, various concentrations of PEG and ABA were tested and modified during development of white spruce somatic embryos.
The starting treatments were prepared as outlined in Table 2.
The embryos were transferred to fresh medium every two weeks over a six week period. Observations were then recorded. The treatments consisted of the following ABA concentrations and media water potentials, with three replicates per treatment.

[3] = system: Western larch somatic embryos; assay: Western larch somatic embryogenesis (Example 10); format: cell-based, Western larch (Larix occidentalis Nutt.)
Method: In order to test the effect of increased ABA and osmoticum, somatic embryos were first cultured on ½ LM full hormone proliferation medium, then transferred to hormone-free preculture medium with 3% sucrose for one week prior to plating 0.75 mL of a 20% (w/v) suspension culture onto filter paper supports overlaying solidified maturation medium. The somatic embryos were plated on PEG medium of 330 mmol/kg and 16 μM ABA, then transferred to 380 mmol/kg PEG medium, 24 ABA after 1 week, then transferred to 450 mmol/kg PEG medium, 32 μM ABA after the third week. These were then either desiccated at week 5 or were transferred to 540 mmol/kg PEG, 40 μM ABA for up to two more weeks before desiccating.

[4] = system: white spruce somatic embryos; assay: Germination and transfer to soil after increasing PEG/ABA culture (Example 8); format: cell-based
Method: In another experiment, white spruce somatic embryos were transferred through the 1/20 hormone increasing PEG/ABA liquid maturation culture (Example 7, treatment 8), then plated onto 20-40 μM ABA, 290-540 mmol/kg PEG transfer schedule (Example 4, treatment 6) followed by desiccation at 4° C. 203 embryos were selected and germinated at 4-12° C. for 4 weeks and produced roots and shoots with needles at a frequency of 191/203=94%. White spruce somatic seedlings produced subsequently using these methods survived transfer to soil in a greenhouse and underwent continued growth at frequencies of 95-100%. However, prolonging maturation of cotyledonary embryos in the presence of high water stress and ABA was detrimental to germination. Thus, after seven to eight weeks of culture of spruce somatic embryos the germination vigour (seedling elongation) and frequencies decreased. Late stage water stress of mid to late cotyledonary stage embryos to below about 30-40% moisture content preferably should not be carried out in the presence of a replenishing source of ABA. This will presumably prevent build up of endogenous ABA, and allow endogenous ABA levels to naturally decline.

[5] = system: white spruce somatic embryos; assay: Somatic seedling length after desiccation and germination (Example 8); format: cell-based; conditions: ABA raised to 40 μM and water potential to 400 or 540 mmol/kg with PEG, versus control; two weeks
Text: In order to desiccate the somatic embryos, they were transferred on their filter paper supports to an empty petri dish. The lid was replaced and left unsealed to prevent contamination while allowing the moisture to escape from the dish. Somatic embryos were desiccated in a sterile chamber in which sterile air at ambient relative humidity (usually 20-60% r.h.) was passed. Similarly, embryos may be desiccated in one or more controlled gaseous environments of relative humidity, ranging from about 5% to 100%. […] Embryos were usually left two weeks to dry. Desiccated embryos can then be stored, preferably frozen, or germinated directly.
For germination, the somatic embryos upon their filter paper supports were rehydrated on germination medium. This consisted of ½ LM, 2% sucrose, 0.7% agar (Sigma), with no growth regulators, glutamine or casein hydrolysate, in petri dishes or Sigma PHYTATRAYS™. […]
Somatic embryos were produced following the methods described in Example 4. […] One batch of desiccated spruce embryos produced using these methods was measured and a moisture content of about 7.7 (±0.2)% recorded. […] Two weeks after imbibition, the somatic plantlets were removed from the culture medium and their lengths were measured. Between 53 to 63 somatic plantlets were recorded per treatment.

Compound: CC1=CC(=O)CC(C)(C)[C@@]1(O)/C=C/C(C)=C\C(=O)O [ABA, abscisic acid]
- appearance, precocious germination ([1]; 20 μM ABA, no PEG, after six weeks): green and elongated
- appearance, precocious germination ([1]; 290 mmol/kg PEG medium and 20 μM ABA, after six weeks): green and some had dark green tips to their cotyledons
- appearance, precocious germination ([1]; completed the 400 mmol/kg PEG, 40 μM ABA treatment, six weeks): yellow with a greenish tinge
- appearance, precocious germination ([1]; completed the 540 mmol/kg PEG, 40 μM ABA treatment, six weeks): small and white with no evidence of precocious germination
- observations (greening, precocious germination) ([2]; Expt A (start PEG 260 mmol/kg, ABA 16 μM), 1. Control, fresh medium of the same composition): green, cotyledon elongation
- observations (greening, precocious germination) ([2]; Expt A (start PEG 260 mmol/kg, ABA 16 μM), 2. Raise ABA (24, 32 μM)): slight or no greening
- observations (greening, precocious germination) ([2]; Expt A (start PEG 260 mmol/kg, ABA 16 μM), 5. Raise PEG (290, 320 mmol/kg), raise ABA (24, 32 μM)): slight or no greening
- observations (greening, precocious germination) ([2]; Expt B (start PEG 260 mmol/kg, ABA 24 μM), 1. Control, fresh medium of the same composition): greening
- observations (greening, precocious germination) ([2]; Expt B (start PEG 260 mmol/kg, ABA 24 μM), 2. Raise ABA (32, 32 μM)): no greening
- observations (greening, precocious germination) ([2]; Expt B (start PEG 260 mmol/kg, ABA 24 μM), 5. Raise PEG (290, 320 mmol/kg), raise ABA (32, 32 μM)): slight or no greening
- observations (greening, precocious germination) ([2]; Expt C (start PEG 290 mmol/kg, ABA 8 μM), 2. Raise ABA (16, 24 μM)): greening
- observations (greening, precocious germination) ([2]; Expt C (start PEG 290 mmol/kg, ABA 8 μM), Raise PEG (12, 14%), raise ABA (16, 24 μM)): none or slight greening
- observations (greening, precocious germination) ([2]; Expt D (start PEG 290 mmol/kg, ABA 16 μM), 2. Raise ABA (24, 32 μM)): no greening
- observations (greening, precocious germination) ([2]; Expt D (start PEG 290 mmol/kg, ABA 16 μM), 4. Raise PEG (290, 320), lower ABA (8, 8 μM)): greening
- observations (greening, precocious germination) ([2]; Expt D (start PEG 290 mmol/kg, ABA 16 μM), 5. Raise PEG (290, 320), raise ABA (24, 32 μM)): no greening
- production of mature embryos ([3]; ABA and a mild water stress of 3% sucrose): rarely produced mature embryos
- plantlets after desiccation and germination ([3]; PEG 330 to 450 or 540 mmol/kg with ABA 16 to 32 or 40 μM, desiccated and germinated): viable somatic plantlets with root and developing needles
- precocious germination ([3]; PEG 330 to 450 or 540 mmol/kg with ABA 16 to 32 or 40 μM, five to seven weeks of culture): inhibited from germinating precociously
- frequency of roots and shoots with needles ([4]; Example 7 treatment 8, then 20-40 μM ABA, 290-540 mmol/kg PEG schedule, desiccation at 4° C., germinated at 4-12° C. for 4 weeks): 94%
- survival of transfer to soil in a greenhouse with continued growth ([4]; somatic seedlings produced using increasing PEG/ABA methods): 95-100%
- increase in plantlet length [5]: ~50%
